Measurements as given in patent publication US12121505B2, “Fap-activated therapeutic agents, and uses related thereto” (BACH BIOSCIENCES, LLC, priority 2014, dated 2024).
Like-named read-outs stand apart in the source and are kept apart here.

How the values were obtained:
FAP [1] = molecular target: T1, FAP (Homo sapiens, UniProt Q12884); experiment: Specificity of activation: 24 h digestion with FAP; format: biochemical; details: 100 μM prodrug, 37° C.
T1 sequence (Q12884 1-760): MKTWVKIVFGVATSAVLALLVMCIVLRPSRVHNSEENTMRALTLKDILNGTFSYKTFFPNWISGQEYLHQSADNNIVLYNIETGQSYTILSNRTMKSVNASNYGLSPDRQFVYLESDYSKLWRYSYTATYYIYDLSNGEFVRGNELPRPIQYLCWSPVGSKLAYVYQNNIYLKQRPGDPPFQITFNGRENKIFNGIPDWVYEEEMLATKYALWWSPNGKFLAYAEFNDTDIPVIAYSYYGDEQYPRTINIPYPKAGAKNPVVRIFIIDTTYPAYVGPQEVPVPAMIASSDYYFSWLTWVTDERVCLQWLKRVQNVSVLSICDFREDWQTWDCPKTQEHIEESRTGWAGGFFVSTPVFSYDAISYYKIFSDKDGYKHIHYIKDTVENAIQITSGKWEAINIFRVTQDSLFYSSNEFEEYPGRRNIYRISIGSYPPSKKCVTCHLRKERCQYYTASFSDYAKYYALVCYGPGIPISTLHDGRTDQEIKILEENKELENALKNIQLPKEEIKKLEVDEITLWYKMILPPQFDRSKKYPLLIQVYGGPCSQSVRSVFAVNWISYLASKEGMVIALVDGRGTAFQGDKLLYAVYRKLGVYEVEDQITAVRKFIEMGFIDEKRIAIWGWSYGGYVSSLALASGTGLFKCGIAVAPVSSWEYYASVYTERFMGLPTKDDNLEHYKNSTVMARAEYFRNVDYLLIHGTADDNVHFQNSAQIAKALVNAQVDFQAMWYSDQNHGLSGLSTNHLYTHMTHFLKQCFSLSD
Experimental: (§1) Total doxorubicin was measured for each assay.

[2] = 100 μM prodrug, 37° C., 12 h
PREP [3] = molecular target: T2, PREP (Homo sapiens, UniProt P48147); experiment: Specificity of activation: 24 h digestion with PREP; format: biochemical; details: 100 μM prodrug, 37° C.
T2 sequence (P48147 1-710): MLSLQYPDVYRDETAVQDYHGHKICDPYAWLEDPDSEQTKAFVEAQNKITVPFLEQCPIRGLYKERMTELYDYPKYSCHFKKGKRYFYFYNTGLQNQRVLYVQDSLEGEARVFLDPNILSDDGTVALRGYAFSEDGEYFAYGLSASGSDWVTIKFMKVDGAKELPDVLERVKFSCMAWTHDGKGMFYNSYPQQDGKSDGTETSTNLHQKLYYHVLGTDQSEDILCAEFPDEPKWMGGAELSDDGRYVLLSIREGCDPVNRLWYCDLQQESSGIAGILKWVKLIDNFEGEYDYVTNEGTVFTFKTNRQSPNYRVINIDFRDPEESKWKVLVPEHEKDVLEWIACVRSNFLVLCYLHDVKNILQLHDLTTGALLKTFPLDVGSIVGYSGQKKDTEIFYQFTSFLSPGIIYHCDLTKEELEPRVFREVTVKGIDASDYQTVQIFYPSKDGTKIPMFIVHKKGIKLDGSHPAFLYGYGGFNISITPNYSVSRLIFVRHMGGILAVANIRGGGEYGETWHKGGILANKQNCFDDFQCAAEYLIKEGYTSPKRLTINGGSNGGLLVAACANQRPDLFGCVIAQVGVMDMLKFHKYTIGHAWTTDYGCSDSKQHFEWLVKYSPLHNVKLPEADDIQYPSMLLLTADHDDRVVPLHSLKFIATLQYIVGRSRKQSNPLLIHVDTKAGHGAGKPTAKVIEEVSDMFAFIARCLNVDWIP
Experimental: as §1

[4] = molecular target: dipeptidyl peptidase IV (DPP IV) (Homo sapiens, UniProt P27487); experiment: Specificity of activation: 24 h digestion with DPP IV; format: biochemical; details: 100 μM prodrug, 37° C.
Experimental: as §1

FAP [5] = molecular target: T1, FAP; experiment: FAP digest of 5057DOX (kinetics); format: biochemical
FAP [6] = molecular target: T1, FAP; experiment: Selectivity of FAP over PREP (5057DOX digest, LCMS); format: biochemical; details: FIG. 14; 240 nM 5057DOX, 12, 24 or 48 nM enzyme, 37° C.
Experimental: Recombinant enzyme (FAP or PREP) was combined, at reaction concentration of 12 nM, 24 nM, or 48 nM, with 240 nM 5057DOX in FAP buffer (50 mM Tris-HCl, pH 7.4, 140 mM NaCl) and incubated at 37° C. Reactions were stopped at 0, 10, 20, or 30 minutes by addition of equal volume of 10 μM Val-boroPro (FAP inhibitor). Doxorubicin was measured by liquid chromatography/mass spectroscopy (LCMS).

PREP [7] = molecular target: T2, PREP; experiment: In vitro PREP inhibition assay; format: biochemical
FAP [8] = molecular target: T1, FAP; experiment: In vitro FAP inhibition assay; format: biochemical
DPPIV = DPPIV (Homo sapiens, UniProt P27487); experiment: In vitro DPPIV inhibition assay; format: biochemical
DPP8 = DPP8 (Homo sapiens, UniProt Q6V1X1); experiment: In vitro DPP8 inhibition assay; format: biochemical
DPP9 = DPP9 (Homo sapiens, UniProt Q86TI2); experiment: In vitro DPP9 inhibition assay; format: biochemical
DPPII = DPPII (Homo sapiens, UniProt Q9UHL4); experiment: In vitro DPPII inhibition assay; format: biochemical
FAP [9] = molecular target: T1, FAP; format: biochemical; details: 1.34×10^−8 M FAP, 37° C.
Experimental: Michaelis-Menten enzyme kinetics for FAP were measured using a SpectraMax M2e microplate reader (Molecular Devices, Sunnyvale, CA, USA). The assays were performed in FAP buffer (50 mM […], 140 mM NaCl, pH 7.5) at 25° C., and the fluorescence continuously monitored at excitation and emission wavelengths of 380 and 460 nm, respectively. Kinetic constants (kcat and Km) were determined using GP-AMC (Bachem, Torrance, CA, USA), Ac-(D)-AP-AFC (MP Biomedicals, Solon, OH, USA) and test article concentrations equivalent to 0.1-5 times their respective Km values, and with 5-10 nM enzyme. All assays were performed in triplicate, and the results were calculated with a nonlinear regression analysis, relying on a Michaelis-Menten curve fit using GraphPad software.
(§2) 3099DOX at various concentrations ranging from 8.5×10^−6 M to 6.9×10^−4 M was incubated with 1.34×10^−8 M FAP or PREP at 37° C., and released doxorubicin measured.

FAP [10] = molecular target: T1, FAP; experiment: Rate of recombinant FAP activity on doxorubicin prodrugs; details: 37° C.
Experimental: 3099DOX, z-GP-DOX, and 3996DOX were incubated in the presence of recombinant FAP at 37° C. for 24 hours. Released doxorubicin was measured at 1, 4, 12, and 24 hours.

[11] = format: physicochemical
Experimental: • (i) LCMS of compound 3099DOX. • 0-3 min: 2% B; 3-20 min: 2-98% B; 20-25 min: 98% B. • Ran with 1.8 μm particle size column on the Old LCMS. • Calc.

PREP [12] = molecular target: T2, PREP; format: biochemical; details: 1.34×10^−8 M PREP, 37° C.
Experimental: as §2

DPP9, sequence (Q86TI2 whole entry, species assumed): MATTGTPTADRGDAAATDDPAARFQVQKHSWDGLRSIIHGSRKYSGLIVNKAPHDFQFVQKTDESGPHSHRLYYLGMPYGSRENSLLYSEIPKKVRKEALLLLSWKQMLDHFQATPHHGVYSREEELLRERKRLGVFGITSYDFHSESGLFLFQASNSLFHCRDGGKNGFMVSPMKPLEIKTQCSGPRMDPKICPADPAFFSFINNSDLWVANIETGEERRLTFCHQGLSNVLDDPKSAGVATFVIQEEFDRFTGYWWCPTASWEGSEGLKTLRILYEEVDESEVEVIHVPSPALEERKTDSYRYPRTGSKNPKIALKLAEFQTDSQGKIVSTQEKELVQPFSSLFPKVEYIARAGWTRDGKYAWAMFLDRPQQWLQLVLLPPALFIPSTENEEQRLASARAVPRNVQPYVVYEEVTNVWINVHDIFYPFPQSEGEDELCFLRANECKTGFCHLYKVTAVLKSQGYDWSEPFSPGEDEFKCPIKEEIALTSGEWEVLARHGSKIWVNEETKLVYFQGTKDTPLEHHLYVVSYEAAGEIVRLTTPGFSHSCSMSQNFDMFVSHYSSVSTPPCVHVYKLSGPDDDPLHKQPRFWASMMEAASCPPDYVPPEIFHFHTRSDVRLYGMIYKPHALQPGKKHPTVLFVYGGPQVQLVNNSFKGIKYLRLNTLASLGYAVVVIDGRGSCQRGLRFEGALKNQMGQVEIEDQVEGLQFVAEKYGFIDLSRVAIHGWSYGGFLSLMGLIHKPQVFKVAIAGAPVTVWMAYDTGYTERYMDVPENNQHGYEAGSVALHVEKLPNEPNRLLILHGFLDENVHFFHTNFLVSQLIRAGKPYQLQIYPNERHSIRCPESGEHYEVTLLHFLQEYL
DPP8, sequence (Q6V1X1 whole entry, species assumed): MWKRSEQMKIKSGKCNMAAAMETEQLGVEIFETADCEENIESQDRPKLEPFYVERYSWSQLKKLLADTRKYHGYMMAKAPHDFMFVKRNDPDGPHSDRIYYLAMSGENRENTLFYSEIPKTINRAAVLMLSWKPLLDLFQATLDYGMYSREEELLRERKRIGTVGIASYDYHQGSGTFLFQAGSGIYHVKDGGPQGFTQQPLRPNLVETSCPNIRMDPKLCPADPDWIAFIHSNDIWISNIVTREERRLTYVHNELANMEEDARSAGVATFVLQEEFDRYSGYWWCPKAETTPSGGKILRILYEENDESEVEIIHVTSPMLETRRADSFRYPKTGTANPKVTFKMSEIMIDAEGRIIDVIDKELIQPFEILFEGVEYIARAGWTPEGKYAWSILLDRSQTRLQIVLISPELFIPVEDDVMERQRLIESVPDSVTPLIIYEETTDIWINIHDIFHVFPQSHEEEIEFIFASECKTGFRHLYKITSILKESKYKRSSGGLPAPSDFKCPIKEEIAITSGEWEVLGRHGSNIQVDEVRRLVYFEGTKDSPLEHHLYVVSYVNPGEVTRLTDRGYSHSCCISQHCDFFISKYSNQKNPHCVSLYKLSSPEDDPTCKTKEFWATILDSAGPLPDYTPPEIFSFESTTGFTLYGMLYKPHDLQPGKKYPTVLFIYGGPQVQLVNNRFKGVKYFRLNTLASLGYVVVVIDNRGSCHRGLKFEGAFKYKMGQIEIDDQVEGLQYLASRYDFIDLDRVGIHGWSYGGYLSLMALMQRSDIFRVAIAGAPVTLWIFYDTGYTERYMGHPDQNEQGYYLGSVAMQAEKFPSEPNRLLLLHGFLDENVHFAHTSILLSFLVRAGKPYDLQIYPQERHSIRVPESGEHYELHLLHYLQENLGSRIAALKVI
dipeptidyl peptidase IV (DPP IV), sequence (P27487 whole entry, species assumed): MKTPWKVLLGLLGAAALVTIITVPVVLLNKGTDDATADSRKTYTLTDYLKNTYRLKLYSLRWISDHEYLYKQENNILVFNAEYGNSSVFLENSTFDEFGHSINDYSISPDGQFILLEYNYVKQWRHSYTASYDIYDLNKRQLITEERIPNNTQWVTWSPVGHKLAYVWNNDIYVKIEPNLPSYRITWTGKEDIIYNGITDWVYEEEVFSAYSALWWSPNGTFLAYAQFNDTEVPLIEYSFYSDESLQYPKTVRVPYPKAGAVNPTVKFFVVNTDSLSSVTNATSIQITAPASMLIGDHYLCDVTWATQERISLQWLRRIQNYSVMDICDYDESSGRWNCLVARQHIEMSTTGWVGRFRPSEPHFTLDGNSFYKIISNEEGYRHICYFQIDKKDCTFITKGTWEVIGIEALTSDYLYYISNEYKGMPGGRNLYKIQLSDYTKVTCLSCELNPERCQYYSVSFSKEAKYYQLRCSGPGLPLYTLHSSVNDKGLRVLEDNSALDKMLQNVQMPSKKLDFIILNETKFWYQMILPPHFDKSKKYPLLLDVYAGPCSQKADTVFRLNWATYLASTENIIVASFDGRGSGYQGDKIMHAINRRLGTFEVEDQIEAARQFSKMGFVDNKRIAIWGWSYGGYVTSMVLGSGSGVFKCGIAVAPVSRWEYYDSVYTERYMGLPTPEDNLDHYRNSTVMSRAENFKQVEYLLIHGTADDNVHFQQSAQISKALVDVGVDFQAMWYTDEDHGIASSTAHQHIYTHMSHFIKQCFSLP
DPPIV, sequence (P27487 whole entry, species assumed): as above

For `COc1cccc2c1C(=O)c1c(O)c3c(c(O)c1C2=O)C[C@@](O)(C(=O)CO)C[C@@H]3O[C@H]1C[C@H](NC(=O)[C@@H]2CCCN2C(=O)CNC(=O)OCc2ccccc2)[C@H](O)[C@H](C)O1` [z-GP-DOX, reference compound], the “doxorubicin released by FAP” value (FAP [1]) was “A similar amount of doxorubicin was released from z-GP-DOX by FAP and PREP”, the “doxorubicin released in mouse muscle lysate” value [2] was “released a large amount of doxorubicin” and the “doxorubicin released by PREP” value (PREP [3]) was “A similar amount of doxorubicin was released from z-GP-DOX by FAP and PREP”. The “doxorubicin released by DPP IV” value [4] was “essentially none by DPP IV”.

In the case of `COc1cccc2c1C(=O)c1c(O)c3c(c(O)c1C2=O)C[C@@](O)(C(=O)CO)C[C@@H]3O[C@H]1C[C@H](NC(=O)[C@@H]2CC(F)(F)CN2C(=O)CNC(=O)c2ccnc3ccccc23)[C@H](O)[C@H](C)O1` [Compound 5057DOX], the Km (FAP [5]; assay 6, [FAP] 4.00 × 10^−9M) is reported as 11.1 µM, the Vmax (FAP [5]; assay 6, [FAP] 4.00 × 10^−9M) is reported as 5.19e-09 M/s and the “kcat(Vmax/[E])” value (FAP [5]; assay 6, [FAP] 4.00 × 10^−9M) is reported as “Kcat(Vmax/[E]) 1.30 sec^−1”. The Kcat (FAP [5]; assay 7, [FAP] 1 nM) was “Kcat 0.98 sec^−1”, the Km (FAP [5]; assay 7, [FAP] 1 nM) was 4.85 µM and the Vmax (FAP [5]; assay 7, [FAP] 1 nM, Dox standards, Daunorubicin internal standard) was “Vmax 9.80 × 10^−9M/sec”. For the same compound, the “activation by FAP as compared to PREP” value (FAP [6]) was “selectively activated by FAP as compared to PREP”.

`CC(C)[C@H](NC(=O)OCc1ccc(NC(=O)[C@@H]2CC(F)(F)CN2C(=O)CNC(=O)c2ccnc3ccccc23)cc1)C(=O)N1CCC[C@H]1B(O)O` [Compound 5181] gave an IC50 (PREP [7]) of 15 nM, an IC50 (FAP [8]) of 110 nM and an IC50 (DPPIV) of 860 nM. It also gave an IC50 (DPP8) of 7300 nM, an IC50 (DPP9) of 2600 nM and an IC50 (DPPII) of 24000 nM.

For `COc1cccc2c1C(=O)c1c(O)c3c(c(O)c1C2=O)C[C@@](O)(C(=O)CO)C[C@@H]3O[C@H]1C[C@H](NC(=O)[C@@H]2CCCN2C(=O)[C@@H](C)NC(=O)c2ccncc2)[C@H](O)[C@H](C)O1` [Compound 3099DOX], the “doxorubicin released by FAP” value (FAP [1]) was “released from 3099DOX by FAP”, the “doxorubicin released in mouse muscle lysate” value [2] was “released essentially no doxorubicin” and the “doxorubicin released by PREP” value (PREP [3]) was “neither PREP nor DPP IV”. For the same compound, the Km (FAP [9]) was 11.2 µM, the “kcat(Vmax/[E])” value (FAP [9]) was 0.44 s⁻¹ and the Vmax (FAP [9]; released doxorubicin) was 5.877e-09 M/s. For the same compound, the “time to reach maximum free doxorubicin” value (FAP [10]) was “approximately 8 h”, the “Remaining Purity %” value ([11]; 22° C./72% RH, 1 month) was 99.5% and the “Remaining Purity %” value ([11]; 22° C./72% RH, 1 week) was 99.3%. The “Remaining Purity %” value ([11]; 22° C./72% RH, 2 month) was 98.1%, the “Remaining Purity %” value ([11]; 22° C./72% RH, 3 month) was 97.5% and the “Remaining Purity %” value ([11]; 22° C./72% RH, Day 0) was 99.4%. For the same compound, the “Remaining Purity %” value ([11]; 40° C./75% RH, 1 month) was 98.8%, the “Remaining Purity %” value ([11]; 40° C./75% RH, 1 week) was 99.3% and the “Remaining Purity %” value ([11]; 40° C./75% RH, 2 month) was 96.3%. For the same compound, the “Remaining Purity %” value ([11]; 40° C./75% RH, 3 month) was 95.3%, the “Remaining Purity %” value ([11]; 40° C./75% RH, Day 0) was 99.4% and the “activation with PREP” value (PREP [12]) was “essentially no activation with PREP”.
